Experimental data reported in patent publication US4157391A, “Cholesterol derivative-based medicaments acting on bio-protective mechanisms” (The Green Cross Corporation, priority 1977, dated 1979).
In brackets after ≈: the same amount, converted by molar mass.

How the values were obtained:
PHA reaction = PHA reaction 50% inhibition (PHA method by Cooperband et al.), immunoregulatory action in vitro; assay type: cell-based; conditions: read-out: PHA reaction 50% inhibition concentration
Description: The PHA reaction 50% inhibition concentration of the compounds of the general formula (I) were examined by using the PHA method by Cooperband, S. R., et al., (The Journal of Immunology, 109, (1), 154, (1972)). For sake of comparison, the effect of IRA obtained according to the Occhino et al., method (The Journal of Immunology, 110, (3), 685, (1973)) was also shown.

[1] = test system: edemata grown on the mice legs (carrageenin); experiment: Antiphlogistic action: carrageenin edema of hind legs in mice; assay type: in vivo
Description: 20 Mice were divided into four groups of five and the mice of two test groups were administered intra-abdominally with 7-hydroxycholesterol and 7-ketocholesterol, respectively, with the dose of 200 mg/kg (physiologically isotonic 2.0 weight % aqueous solution), and 1 hour later, 0.05 ml of 1% carrageenin was administered as a phlogogenic agent subcutaneously to the hind legs of these mice.
The sizes of the edemata grown on the mice legs with time after carrageenin administration were measured by a volume differential meter and compared with those of the control mice to which an isotonic sodium chloride solution was administered.
The test results are shown in the graph of FIG. 1 of the accompanying drawing. In the graph, percent of growth of edema is given on the vertical Y-axis and time (hour) after carrageenin administration is given on the horizontal X-axis. The numerals for the respective curves represent the respective specimens used in the test, that is, 1 represents isotonic sodium chloride solution, 2 cholesterol, 3 7-ketocholesterol, and 4 7-hydroxycholesterol.

rats = experiment: Acute toxicity test in rats; assay type: in vivo; conditions: intra-abdominal, 500, 1,000, 1,500 and 2,000 mg/kg, 5-day observation
Description: An acute toxicity test of 7-hydroxycholesterol and 7-ketocholesterol was conducted on one group of rats (5 rats) with average body weight of about 200 gr. Each compound was suspended in a physiological solution of sodium chloride and made into a uniform suspension by a supersonic treatment, and then such suspension was administered intro-abdominally to each rat at the doses of 500 mg/kg, 1,000 mg/kg, 1,500 mg/kg and 2,000 mg/kg, respectively.

| SMILES | IC50 (PHA reaction) | growth of edema ([1]; 200 mg/kg intra-abdominally, five hours after carrageenin, control 82% in four hours) | death in acute toxicity test (rats) | growth of edema ([1]; 200 mg/kg intra-abdominally, time not separately stated, control 82% in four hours) | growth of edema ([1]; four hours after carrageenin, cholesterol group (reference data), control 82%) |
| --- | --- | --- | --- | --- | --- |
| CC(C)CCC[C@@H](C)[C@H]1CC[C@H]2[C@@H]3C(O)C=C4C[C@@H](O)CC[C@]4(C)[C@H]3CC[C@]12C (stereo partly shown) [7-hydroxycholesterol] | 5 µg/mL (≈ 12.4 µM) | about 40% | No death |  |  |
| CC(C)CCC[C@@H](C)[C@H]1CC[C@H]2[C@@H]3C(=O)C=C4C[C@@H](O)CC[C@]4(C)[C@H]3CC[C@]12C [7-ketocholesterol] | 8 µg/mL (≈ 20 µM) |  | No death | about 50% |  |
| CC(C)CCC[C@@H](C)[C@H]1CC[C@H]2[C@@H]3CC=C4C[C@@H](O)CC[C@]4(C)[C@H]3CC[C@]12C [cholesterol] |  |  |  |  | 70% |
